From ChEMBL document CHEMBL4477253, “Oxazolidinone-based allosteric modulators of mGluR5: Defining molecular switches to create a pharmacological tool box” (Bioorg Med Chem Lett, 2016)
The source made the active and inactive calls. The rule behind the calls is not given here.

Experiments:
[1] = Toxicity in C57BL/6 mouse assessed as induction of convulsions at 30 mg/kg, ip during 3 hrs study; assay type: organism-based; settings: in vivo
[2] = test system: Mus musculus; assay: Ex vivo receptor occupancy at mGluR5A in C57BL/6 mouse at 10 and 30 mg/kg; assay type: functional, organism-based
[3] = target: T1, Metabotropic glutamate receptor 5 (Homo sapiens, UniProt P41594); assay: Negative allosteric modulation of human mGluR5A transfected in HEK293 cells assessed as inhibition of L-glutamate-induced calcium release after 10 mins by FLIPR assay; assay type: functional, cell-based
Target sequence in this assay (P41594 whole entry): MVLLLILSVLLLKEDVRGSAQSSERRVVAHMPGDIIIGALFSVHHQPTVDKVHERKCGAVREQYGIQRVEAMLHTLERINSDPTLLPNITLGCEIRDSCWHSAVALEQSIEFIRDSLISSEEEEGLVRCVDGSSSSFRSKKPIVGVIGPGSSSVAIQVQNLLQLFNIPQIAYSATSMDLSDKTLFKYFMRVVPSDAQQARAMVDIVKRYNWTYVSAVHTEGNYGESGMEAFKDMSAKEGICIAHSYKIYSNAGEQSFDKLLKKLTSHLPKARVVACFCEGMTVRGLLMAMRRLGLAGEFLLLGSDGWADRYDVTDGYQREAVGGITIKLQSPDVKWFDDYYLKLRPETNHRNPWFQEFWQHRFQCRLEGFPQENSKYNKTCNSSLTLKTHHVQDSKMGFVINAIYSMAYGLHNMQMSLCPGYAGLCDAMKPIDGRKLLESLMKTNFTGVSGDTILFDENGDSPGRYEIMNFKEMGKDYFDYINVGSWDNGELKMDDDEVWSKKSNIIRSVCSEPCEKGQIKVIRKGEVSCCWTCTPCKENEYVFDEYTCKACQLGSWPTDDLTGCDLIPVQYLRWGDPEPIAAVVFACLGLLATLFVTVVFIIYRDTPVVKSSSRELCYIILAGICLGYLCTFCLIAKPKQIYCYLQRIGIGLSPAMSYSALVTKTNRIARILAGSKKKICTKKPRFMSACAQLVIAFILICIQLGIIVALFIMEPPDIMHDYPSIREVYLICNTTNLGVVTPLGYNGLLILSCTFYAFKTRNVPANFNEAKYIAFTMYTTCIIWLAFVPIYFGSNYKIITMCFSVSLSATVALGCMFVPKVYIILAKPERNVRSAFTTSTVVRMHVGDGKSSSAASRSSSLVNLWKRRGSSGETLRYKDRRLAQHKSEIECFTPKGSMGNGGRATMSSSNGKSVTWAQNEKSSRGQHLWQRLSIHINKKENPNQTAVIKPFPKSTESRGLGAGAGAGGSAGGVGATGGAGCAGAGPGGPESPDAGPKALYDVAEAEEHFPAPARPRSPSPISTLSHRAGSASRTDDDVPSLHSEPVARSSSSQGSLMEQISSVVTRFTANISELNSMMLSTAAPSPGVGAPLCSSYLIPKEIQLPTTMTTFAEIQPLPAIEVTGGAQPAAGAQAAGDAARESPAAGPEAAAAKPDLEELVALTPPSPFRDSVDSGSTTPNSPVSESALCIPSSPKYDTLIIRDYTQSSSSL

[4] = target: T1, Metabotropic glutamate receptor 5; assay: Displacement of [3H]-MPEPy from human mGluR5A transfected in HEK293 cell membranes after 60 mins by microbeta liquid scintillation counting analysis
Target sequence in this assay (P41594 whole entry): as above

[5] = target: T1, Metabotropic glutamate receptor 5; assay: Positive allosteric modulation of human mGluR5A transfected in HEK293 cells assessed as potentiation of L-glutamate-induced calcium release incubated for 10 mins by FLIPR assay; assay type: functional, cell-based
Target sequence in this assay (P41594 whole entry): as above

[6] = target: T1, Metabotropic glutamate receptor 5; assay: Agonist activity at human mGluR5A transfected in HEK293 cells assessed as induction of calcium release by FLIPR assay; assay type: functional, cell-based
Target sequence in this assay (P41594 whole entry): as above

[7] = Fraction unbound in mouse serum; assay type: ADME, cell-free
[8] = Metabolic stability in rat liver microsomes assessed as compound remaining after 10 mins; assay type: ADME, Microsome; settings: read-out: Stability
[9] = Toxicity in C57BL/6 mouse assessed as induction of convulsions at 10 mg/kg, ip during 3 hrs study; assay type: organism-based; settings: in vivo
[10] = Fraction unbound in human serum; assay type: ADME, cell-free
[11] = Metabolic stability in human liver microsomes assessed as compound remaining after 10 mins; assay type: ADME, Microsome; settings: read-out: Stability
[12] = Drug uptake in C57BL/6 mouse plasma at 3 mg/kg, sc measured after 60 mins; assay type: ADME, organism-based
[13] = Ratio of drug uptake in C57BL/6 mouse brain to plasma at 1 mg/kg, sc measured after 60 mins; assay type: ADME, organism-based; settings: read-out: BPR
[14] = Drug uptake in C57BL/6 mouse brain at 10 mg/kg, sc measured after 60 mins; assay type: ADME, organism-based; settings: read-out: Drug uptake
[15] = Ratio of drug uptake in C57BL/6 mouse brain to plasma at 3 mg/kg, sc measured after 60 mins; assay type: ADME, organism-based; settings: read-out: BPR
[16] = Drug uptake in C57BL/6 mouse brain at 1 mg/kg, sc measured after 60 mins; assay type: ADME, organism-based; settings: read-out: Drug uptake
[17] = test system: Mus musculus; assay: Cognitive enhancing effect in sc dosed C57BL/6 mouse assessed as time spent on exploring novel objects administered 1 hr before acquisition session followed by acquisition session for 15 mins by novel object recognition test; assay type: functional; settings: C57BL/6, sc, read-out: MED
[18] = Drug uptake in C57BL/6 mouse plasma at 1 mg/kg, sc measured after 60 mins; assay type: ADME, organism-based
[19] = Drug uptake in C57BL/6 mouse plasma at 10 mg/kg, sc measured after 60 mins; assay type: ADME, organism-based
[20] = Metabolic stability in mouse liver microsomes assessed as compound remaining after 10 mins; assay type: ADME, Microsome; settings: read-out: Stability
[21] = Ratio of drug uptake in C57BL/6 mouse brain to plasma at 10 mg/kg, sc measured after 60 mins; assay type: ADME, organism-based; settings: read-out: BPR
[22] = Drug uptake in C57BL/6 mouse brain at 3 mg/kg, sc measured after 60 mins; assay type: ADME, organism-based; settings: read-out: Drug uptake
[23] = Toxicity in C57BL/6 mouse assessed as induction of convulsions at 3 mg/kg, ip during 3 hrs study; assay type: organism-based; settings: in vivo
[24] = Fraction unbound in rat serum; assay type: ADME, cell-free
[25] = target: T1, Metabotropic glutamate receptor 5; assay: Agonist activity at human mGluR5A transfected in HEK293 cells assessed as induction of calcium release up to 3 uM by FLIPR assay; assay type: functional, cell-based
Target sequence in this assay (P41594 21-1212 limits assumed): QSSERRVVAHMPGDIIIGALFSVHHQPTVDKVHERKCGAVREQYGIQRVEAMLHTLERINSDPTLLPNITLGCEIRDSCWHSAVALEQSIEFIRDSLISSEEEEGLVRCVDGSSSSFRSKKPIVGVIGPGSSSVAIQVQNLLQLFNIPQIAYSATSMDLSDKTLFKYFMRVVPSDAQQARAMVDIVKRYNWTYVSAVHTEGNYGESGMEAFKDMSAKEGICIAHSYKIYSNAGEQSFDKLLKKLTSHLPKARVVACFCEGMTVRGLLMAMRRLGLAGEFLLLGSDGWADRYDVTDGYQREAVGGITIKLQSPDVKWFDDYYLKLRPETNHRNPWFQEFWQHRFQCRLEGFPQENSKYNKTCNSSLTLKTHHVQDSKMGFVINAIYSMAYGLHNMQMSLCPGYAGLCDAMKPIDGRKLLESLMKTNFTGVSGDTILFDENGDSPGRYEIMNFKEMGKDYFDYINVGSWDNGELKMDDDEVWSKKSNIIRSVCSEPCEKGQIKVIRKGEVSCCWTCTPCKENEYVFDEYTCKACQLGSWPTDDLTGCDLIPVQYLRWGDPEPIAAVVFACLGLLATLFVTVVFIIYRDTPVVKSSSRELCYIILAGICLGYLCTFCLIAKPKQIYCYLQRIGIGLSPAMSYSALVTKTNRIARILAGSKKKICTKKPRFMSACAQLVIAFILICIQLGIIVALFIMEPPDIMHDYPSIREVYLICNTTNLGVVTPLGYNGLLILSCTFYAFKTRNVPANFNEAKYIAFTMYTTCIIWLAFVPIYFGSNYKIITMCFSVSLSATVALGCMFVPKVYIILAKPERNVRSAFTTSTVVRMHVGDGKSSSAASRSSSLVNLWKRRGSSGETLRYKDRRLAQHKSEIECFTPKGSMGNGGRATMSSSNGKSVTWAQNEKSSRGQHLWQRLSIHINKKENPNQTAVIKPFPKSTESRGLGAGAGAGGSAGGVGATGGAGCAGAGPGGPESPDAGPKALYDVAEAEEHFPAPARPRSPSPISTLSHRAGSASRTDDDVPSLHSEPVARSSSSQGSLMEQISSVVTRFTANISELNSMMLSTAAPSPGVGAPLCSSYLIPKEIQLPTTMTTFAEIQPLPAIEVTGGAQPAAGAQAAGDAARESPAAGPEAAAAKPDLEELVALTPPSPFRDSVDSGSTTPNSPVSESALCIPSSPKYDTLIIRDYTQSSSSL

[26] = target: T1, Metabotropic glutamate receptor 5; assay: Antagonist activity against human mGluR5A transfected in HEK293 cells assessed as inhibition of L-glutamate-induced calcium release up to 3 uM after 10 mins by FLIPR assay; assay type: functional, cell-based
Target sequence in this assay (P41594 21-1212 limits assumed): as above

[27] = target: T1, Metabotropic glutamate receptor 5; assay: Displacement of [3H]-MPEP from human mGluR5A transfected in HEK293 cells after 60 mins by microbeta liquid scintillation counting analysis; assay type: cell-based
Target sequence in this assay (P41594 whole entry): as the sequence (P41594 whole entry) above

[28] = Toxicity in C57BL/6 mouse assessed as induction of convulsions at 10 mg/kg, ip coadministered with (4R,5R)-5-phenyl-4-(4-(phenylethynyl)pyridin-2-yl)oxazolidin-2-one during 3 hrs study; assay type: organism-based; settings: in vivo
[29] = Toxicity in C57BL/6 mouse assessed as induction of convulsions at 1 mg/kg, ip during 3 hrs study; assay type: organism-based; settings: in vivo

Row | Structure (SMILES) | Ki [4] [nM] | EC50 [5] [nM] | EC50 [6] [nM] | fraction unbound [7] | remaining at 10 min [8] [%] | fraction unbound [10] | remaining at 10 min [11] [%] | other results
1 | O=C1N[C@H](c2cncc(C#Cc3ccccc3)c2)[C@@H](c2cc(F)ccc2F)O1 | – | – | – | – | – | – | – | Activity [1]: Non-Toxic; Activity [2]: Active
2 | O=C1N[C@H](c2cncc(C#Cc3ccccc3)c2)[C@@H](c2c(F)cccc2F)O1 | 2.7 | > 3000 | > 3000 | – | – | – | – | IC50 [3]: 27 nM
3 | O=C1N[C@H](c2cncc(C#Cc3ccnc(F)c3)c2)[C@@H](c2ccc(F)cc2)O1 | 15 | 4.8 | > 3000 | 0.11 | 100 | 0.034 | 92 | Activity [9]: Toxic
4 | O=C1N[C@H](c2cncc(C#Cc3ccccc3)c2)[C@@H](c2ccc(Cl)cc2)O1 | 2.2 | 0.6 | 333 | – | – | – | – | –
5 | O=C1N[C@H](c2cncc(C#Cc3ccccc3)c2)[C@@H](c2cc(F)cc(F)c2)O1 | 1.4 | 5.5 | > 3000 | – | – | – | – | –
6 | O=C1N[C@H](c2cncc(C#Cc3ncccc3F)c2)[C@@H](c2ccc(F)cc2)O1 | 14 | 10 | > 3000 | 0.13 | 100 | 0.076 | 100 | concentration at 1 h [12]: 1430 nM; Kp at 1 h [13]: 0.15; Activity [1]: Non-Toxic; concentration at 1 h [14]: 542 nM; Kp at 1 h [15]: 0.14; concentration at 1 h [16]: 56 nM; minimal effective dose [17]: 10 mg/kg; concentration at 1 h [18]: 375 nM; concentration at 1 h [19]: 5250 nM; remaining at 10 min [20]: 100%; Kp at 1 h [21]: 0.1 to 0.11; concentration at 1 h [22]: 182 nM
7 | O=C1N[C@H](c2cncc(C#Cc3ccccc3)c2)[C@@H](c2cccc(F)c2)O1 | – | – | – | – | – | – | – | Activity [23]: Toxic
8 | O=C1N[C@H](c2cncc(C#Cc3ccccc3)c2)[C@@H](c2ccccc2)O1 | 1.4 | 0.7 | > 3000 | 0.047 | – | 0.008 | – | fraction unbound [24]: 0.007; Activity [1]: Non-Toxic; Activity [25]: inactive; inhibition [26]: inactive
9 | O=C1N[C@H](c2cncc(C#Cc3cccnc3)c2)[C@@H](c2ccc(F)cc2)O1 | 32 | 3.3 | 273 | 0.11 | 85 | 0.082 | 76 | remaining at 10 min [20]: 87%
10 | O=C1N[C@H](c2cncc(C#Cc3ccccc3)c2)[C@@H](c2ccccc2Cl)O1 [BMS-984923] | – | > 3000 | > 3000 | – | – | – | – | –
11 | O=C1N[C@H](c2cccc(C#Cc3ccccc3)c2)[C@@H](c2ccccc2)O1 | – | 38 | – | 0.001 | – | < 0.001 | – | fraction unbound [24]: 0.001; Activity [25]: inactive; inhibition [26]: inactive; Ki [27]: 8.9 nM
12 | O=C1N[C@H](c2cc(C#Cc3ccccc3)ccn2)[C@@H](c2ccccc2)O1 | – | – | – | 0.01 | – | 0.006 | – | fraction unbound [24]: 0.009; Activity [25]: inactive; inhibition [26]: inactive
13 | O=C1N[C@H](c2cncc(C#Cc3ccccc3)c2)[C@@H](c2ccc(F)c(F)c2)O1 | 2.8 | 0.2 | 50 | – | – | – | – | –
14 | O=C1N[C@H](c2cncc(C#Cc3ccccc3)c2)[C@@H](c2cccc(Cl)c2)O1 | 1.8 | 0.9 | > 3000 | – | – | – | – | –
15 | O=C1N[C@H](c2ccnc(C#Cc3ccccc3)c2)[C@@H](c2ccccc2)O1 | 2.1 | 1.5 | – | 0.021 | – | 0.005 | – | fraction unbound [24]: 0.012; Activity [25]: inactive; inhibition [26]: inactive
16 | O=C1N[C@H](c2cncc(C#Cc3cncc(F)c3)c2)[C@@H](c2ccc(F)cc2)O1 | – | – | 315 | – | 85 | 0.035 | 97 | Activity [28]: Non-Toxic; remaining at 10 min [20]: 77%; Activity [9]: Toxic
17 | O=C1N[C@H](c2cccc(C#Cc3ccccc3)n2)[C@@H](c2ccccc2)O1 | 44 | 9.4 | – | 0.011 | – | 0.009 | – | fraction unbound [24]: 0.009; Activity [1]: Non-Toxic; Activity [25]: inactive; inhibition [26]: inactive
18 | O=C1N[C@H](c2cncc(C#Cc3ccncc3)c2)[C@@H](c2ccc(F)cc2)O1 | 16 | 14 | > 3000 | 0.1 | 65 | 0.14 | 70 | remaining at 10 min [20]: 69%
19 | O=C1N[C@H](c2cncc(C#Cc3ccccc3)c2)[C@@H](c2ccccc2F)O1 | 1.9 | 1.5 | > 3000 | – | – | – | – | –
20 | O=C1N[C@H](c2cncc(C#Cc3ccccc3)c2)[C@@H](c2cccc(F)c2F)O1 | 1.8 | 4.2 | > 3000 | – | – | – | – | –
21 | O=C1N[C@H](c2cncc(C#Cc3ccccc3)c2)[C@@H](c2ccc(F)cc2)O1 | 1.7 | 0.4 | 504 | 0.009 | 92 | 0.004 | 81 | Activity [29]: Toxic; remaining at 10 min [20]: 80%
22 | O=C1N[C@H](c2cncc(C#Cc3ccccn3)c2)[C@@H](c2ccc(F)cc2)O1 | 23 | 25 | > 3000 | 0.069 | 100 | 0.064 | 97 | remaining at 10 min [20]: 89%
23 | O=C1N[C@H](c2cncc(C#Cc3ccccc3)c2)[C@@H](c2ccc(F)cc2F)O1 | 1.4 | 1.2 | > 3000 | – | – | – | – | Activity [23]: Toxic
